Key:
[1] = Phosphate Binding Assay (excess phosphate, pH 3.0, 37° C., ion chromatography); conditions: 2.5 mg La2(CO3)3/mL phosphate solution, 60 minutes; for Binding Capacity, Ground Tablet: whole tablet coarsely ground before analysis; for Binding Capacity, Whole Tablet: whole tablet without further modification
Text: Table II describes the phosphate binding ability of the prepared Examples in either whole or ground tablet form. The ground tablets simulate a chewable tablet formulation after chewing has occurred. Phosphate binding ability is a term used to predict the amount of phosphate that can be bound by a sequestrant under conditions which employ a large excess of phosphate, such as those found in the stomach. Mazzeo, J. R.; et. al. Journal of Pharmaceutical and Biomedical Analysis 1999, vol. 19, pps. 911-915. This assay, which utilizes a large excess of phosphate, is therefore a better functional model of biological conditions than the assay described in U.S. Pat. No. 5,968,976 which utilizes only two molar equivalents of phosphate ion per mole of lanthanum carbonate.
The uncoated, compressed tablets obtained from Examples 1-17 were assessed for phosphate binding ability. Whole tablets, prepared as described above, as well as coarsely ground tablets were both examined.
i. Preparation of stock phosphate solution:
21.4 g N,N-bis(hydroxyethyl)-2-aminoethanesulfonic acid, 4.7 g NaCl, and 2.7 g KH2PO4 (ultra high purity) were added to a 1000 mL volumetric flask and dissolved in 950 mL DI H2O. The pH was then adjusted to 3.0 (±0.05) with HCl, and the solution was diluted to volume with DI H2O and mixed.
The lanthanum carbonate complex was added to the stock phosphate solution so that the final concentration was 2.5 mg La2(CO3)3/mL phosphate solution. The mixture was heated at 37° C. for 60 minutes with constant swirling. It was then filtered through a 0.2 μm nylon filter.
The sample was then diluted to allow injection into the ion chromatograph. Here, a dilution factor of 100 was used: a 1.0 mL aliquot was removed and diluted volumetrically to 100 mL with DI water.
iii. Phosphate Measurement
The amount of unbound phosphate was determined by ion chromatography on a Dionex ICS-1500 ion chromatograph equipped with a conductivity cell (35° C.) and a Dionex MRS 300 4 mm auto suppressor. Material was eluted through a Dionex AG11-HC guard column (4×50 mm) and a Dionex AS11-HC column (4×250 mm) at 1.0 mL/min using 25 mM NaOH in DI H2O as the mobile phase. The sample response was then recorded by a computerized chromatography data system.
iv. Construction of Phosphate Calibration Curve
The linearity of the response was verified as follows. A series of standards over a wide range of free phosphate concentration (approximately 0.04, 0.06, 0.10, 0.15, 0.20, and 0.25 mM) were prepared and their ion chromatographic responses were determined. A plot of free phosphate concentration (mM) vs. response was then constructed. The slope and y-intercept of the resulting linear regression plot were then determined.
The phosphate binding capacity was calculated from the following equations.

[2] = Disintegration of uncoated, compressed tablets in deionized water (USP <701>); assay type: physicochemical; conditions: whole, intact tablet in deionized water; single tablet per example
Protocol: The uncoated, compressed tablets were assessed for disintegration. The disintegration time was measured using the procedure and apparatus as described by physical test <701>, Disintegration, from The United States Pharmacopeia, Volume 29. The disintegration of a single tablet from each example was measured.

Binding Capacity, Ground Tablet [1]	Binding Capacity, Whole Tablet [1]	Disintegration Time [2]	SMILES
3.6 mmol PO4-2/g La2(CO3)3	0.8 mmol PO4-2/g La2(CO3)3	>7 h	O.O.O.O.O.O.O.O.O.O.O.O.O.O.O=C([O-])[O-].O=C([O-])[O-].O=C([O-])[O-].[La+3].[La+3] [Example 16, La2(CO3)3•14H20]
3.0 mmol PO4-2/g La2(CO3)3	0.6 mmol PO4-2/g La2(CO3)3	>7 h	O.O.O.O.O.O.O.O.O=C([O-])[O-].O=C([O-])[O-].O=C([O-])[O-].[La+3].[La+3] [Example 15, La2(CO3)3•8H20]
3.0 mmol PO4-2/g La2(CO3)3	0.7 mmol PO4-2/g La2(CO3)3	5 h	O=C([O-])[O-].O=C([O-])[O-].O=C([O-])[O-].[La+3].[La+3] [Example 14, La2(CO3)3•5H20]

— US8962036B2, “Disintegrable formulations of lanthanum carbonate” (Mylan Pharmaceuticals Inc., priority 2009, dated 2015)
